Results taken from patent US12653809B2, “Urea, amide, and substituted heteroaryl compounds for CBL-B inhibition” (Nurix Therapeutics, Inc., priority 2019, dated 2026).
Like-named read-outs stand apart in the source and are kept apart here.

Target: T1, Cbl-b (truncated variant, UniProt number Q13191) (Homo sapiens, UniProt Q13191)
T1 construct: made in house
Experiment: Cbl-b activity assay (TR-FRET, interaction of Cbl-b with UbcH5B-Ub)
Assay type: biochemical
Description: As described in Biological Example 1A, a Cbl-b activity assay (Cbl-b inhibition assay) used to measure the IC50 values for Cbl-b inhibition uses a mixture comprising candidate compound, Cbl-b (truncated, with an Avitag, and biotinylated), a fluorescently-labeled E2 enzyme UbcH5B labelled with ubiquitin conjugated to BODIPY-fluorescein (UbcH5B-Ub), streptavidin-terbium, and assay buffer. In one embodiment, the Cbl-b activity assay (Cbl-b inhibition assay) used to measure IC50 for inhibition of Cbl-b uses the conditions described in Biological Example 1A with 12 nM Cbl-b. […] In another embodiment, the Cbl-b activity assay (Cbl-b inhibition assay) used to measure IC50 for inhibition of Cbl-b uses the conditions described in Biological Example 1B, with candidate compound, 0.125 nM Cbl-b (truncated, with an avitag, and biotinylated), fluorescently labelled inhibitor probe, and assay buffer. Displacement of the inhibitor probe indicates Cbl-b activity.
Candidate compounds isolated from screening assays were evaluated for their ability to bind and inhibit Cbl-b, an E3 ubiquitin-protein ligase.
The ability of candidate compounds to inhibit Cbl-b activity was measured by monitoring the interaction of Cbl-b with UbcH5B-Ub in the presence of the candidate compound. A truncated variant of Cbl-b (UniProt number Q13191; SEQ ID NO:1) containing an Avitag at its N-terminus was co-expressed with BirA biotin ligase and purified using a standard protocol (see Dou et al., Nature Structural and Molecular Biology 8: 982-987, 2013; Avidity LLC).
Fluorescently labeled UbcH5B-Ub was prepared by conjugating ubiquitin (Ub), labeled at its N-terminus with Bodipy-Fluorescein, to UbcH5B, an E2 enzyme, harboring a cysteine to lysine mutation at position 85. This mutation is similar to a mutation that was previously reported (see Dou et al., Nature Structural and Molecular Biology 8: 982-987, 2013). Cbl-b activity assays were performed in a 384-well plate at room temperature in a 10 μL reaction volume by pre-incubating 12 nM Cbl-b (final concentration) in an assay buffer containing 50 mM HEPES pH 7.0, 100 mM NaCl, 0.01% Triton X-100, 0.01% BSA, and 1 mM DTT in the presence of a candidate compound in 1% DMSO (final concentration, High Conditions) for one hour. After incubation in the presence of the candidate compound, the plate was incubated for an additional 1.5 hours in the presence of 60 nM Src kinase with 1 mM ATP and 5 mM MgCl2 (final concentrations). Alternatively, compounds were tested as described above with assay buffer containing 50 mM NaCl instead of 100 mM NaCl and 30 nM Src kinase instead of 60 nM Src kinase (Low Conditions). Src kinase was prepared as previously described (see Kobashigawa et al., Proc Natl Acad Sci USA, 108: 20579-20584, 2011). […] The plate was incubated for one hour. Following the one hour incubation, the plates were read for TR-FRET signal at 520/620 nm using Envision plate reader (Perkin Elmer). The presence of a FRET signal that indicated Cbl-b was not inhibited by the compound candidate. The absence of a FRET signal indicated Cbl-b was inhibited by the compound candidate and was therefore a Cbl-b inhibitor.
The resulting data for the Cbl-b activity assays were analyzed using standard methods to report the IC50 values of the tested compounds (Tables 3-4). The resulting data for the Cbl-b binding assay was solvent corrected and double-referenced prior to analysis. All data were globally fit to a steady-state affinity and kinetic binding model where applicable. Compounds were ranked into bins A through D as follows for IC50: A indicates <0.1 μM, B indicates 0.1 μM≤IC50<1 μM, C indicates 1 μM≤IC50<5 μM, and D indicates 5 μM≤IC50.

[1] = Biological Example 1A, low or high conditions not stated, read-out: IC50 values in the Cbl-b inhibition assay of Biological Example 1A
[2] = high conditions: 100 mM NaCl, 60 nM Src kinase, 12 nM Cbl-b, read-out: Cbl-b activity IC50

T1 sequence (Q13191 36-427): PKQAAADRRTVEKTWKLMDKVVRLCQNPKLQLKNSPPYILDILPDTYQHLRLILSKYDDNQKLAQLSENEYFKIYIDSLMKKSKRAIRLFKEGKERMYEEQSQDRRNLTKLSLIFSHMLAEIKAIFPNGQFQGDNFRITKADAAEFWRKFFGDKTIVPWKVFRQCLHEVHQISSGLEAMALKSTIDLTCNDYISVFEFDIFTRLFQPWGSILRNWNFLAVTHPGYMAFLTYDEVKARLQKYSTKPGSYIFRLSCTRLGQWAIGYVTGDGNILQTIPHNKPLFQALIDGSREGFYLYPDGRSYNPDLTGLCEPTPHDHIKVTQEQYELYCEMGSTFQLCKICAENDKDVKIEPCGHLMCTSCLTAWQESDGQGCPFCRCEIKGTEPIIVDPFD

Row | Compound | IC50 [1] [µM] | IC50 [2] [µM]
1 | C[C@H](Sc1nncn1C)c1cccc(-n2ncc(-c3cccc(C(=O)O)c3)n2)c1 [Example 90, (S)-3-(2-(3-(1-(4-methyl-4H-1,2,4-triazol-3-ylthio)ethyl)phenyl)-2H-1,2,3-triazol-4-yl)benzoic acid] | 1 to 5 | 1 to 5
2 | C[C@H](Sc1nncn1C)c1cccc(NC(=O)N2CC3CCCC3C2)c1 (stereo partly drawn) [Example 40, N-(3-((S)-1-((4-methyl-4H-1,2,4-triazol-3-yl)thio)ethyl)phenyl)hexahydrocyclopenta[c]pyrrole-2(1H)-carboxamide] | 1 to 5 | 1 to 5
3 | Cn1cnnc1CC1(c2cccc(NC(=O)N3CC4(CCNC4)Oc4cccnc43)c2)COC1 (centres unmarked) [Example 26, N-(3-(3-((4-methyl-4H-1,2,4-triazol-3-yl)methyl)oxetan-3-yl)phenyl)spiro[pyrido[3,2-b][1,4]oxazine-2,3′-pyrrolidine]-4(3H)-carboxamide] | – | < 0.1
4 | C[C@H](Sc1nncn1C)c1cccc(-c2cc(-c3cccc(C#N)c3)no2)c1 [Example 62, (S)-3-(5-(3-(1-(4-methyl-4H-1,2,4-triazol-3-ylthio)ethyl)phenyl)isoxazol-3-yl)benzonitrile] | – | 1 to 5
5 | C[C@H](Sc1nncn1C)c1cccc(-n2ncc(-c3cccc(C(N)=O)c3)n2)c1 [Example 95, (S)-3-(2-(3-(1-(4-methyl-4H-1,2,4-triazol-3-ylthio)ethyl)phenyl)-2H-1,2,3-triazol-4-yl)benzamide] | 0.1 to 1 | 0.1 to 1
6 | C[C@H](Sc1nncn1C)c1cccc(-c2cc(-c3ccc(CO)cc3)no2)c1 [Example 64, (S)-(4-(5-(3-(1-(4-methyl-4H-1,2,4-triazol-3-ylthio)ethyl)phenyl)isoxazol-3-yl)phenyl)methanol] | 1 to 5 | 1 to 5
7 | C[C@H](Sc1nncn1C)c1cccc(NC(=O)NC2CCCN(c3cccnn3)C2)c1 (stereo partly drawn) [Example 129, 1-(3-((S)-1-((4-methyl-4H-1,2,4-triazol-3-yl)thio)ethyl)phenyl)-3-(1-(pyridazin-3-yl)piperidin-3-yl)urea] | – | ≥ 5
8 | COC(=O)C1(C(F)(F)F)CCN(C(=O)Nc2cccc([C@H](C)Cc3nncn3C)c2)C1 (stereo partly drawn) [Example 11, Methyl 1-((3-((R)-1-(4-methyl-4H-1,2,4-triazol-3-yl)propan-2-yl)phenyl)carbamoyl)-3-(trifluoromethyl)pyrrolidine-3-carboxylate] | 1 to 5 | 1 to 5
9 | C[C@H](Sc1nncn1C)c1cccc(-n2cc(-c3cccc(C(=O)O)c3)nn2)c1 [Example 91, (S)-3-(1-(3-(1-(4-methyl-4H-1,2,4-triazol-3-ylthio)ethyl)phenyl)-1H-1,2,3-triazol-4-yl)benzoic acid] | ≥ 5 | ≥ 5
10 | C[C@H](Sc1nncn1C)c1cccc(NC(=O)N2CCO[C@@H]([C@H]3CCCO3)C2)c1 [Example 136, (R)—N-(3-((S)-1-((4-methyl-4H-1,2,4-triazol-3-yl)thio)ethyl)phenyl)-2-((R)-tetrahydrofuran-2-yl)morpholine-4-carboxamide] | – | ≥ 5
11 | CC(Sc1nncn1C)c1cccc(-c2cc(-c3ccccn3)no2)c1 (centres unmarked) [Example 70, 5-(3-(1-((4-methyl-4H-1,2,4-triazol-3-yl)thio)ethyl)phenyl)-3-(pyridin-2-yl)isoxazole] | ≥ 5 | ≥ 5
12 | COc1ccc(-c2cc(-c3cccc([C@H](C)Sc4nncn4C)c3)on2)cc1 [Example 59, (S)-3-(4-methoxyphenyl)-5-(3-(1-((4-methyl-4H-1,2,4-triazol-3-yl)thio)ethyl)phenyl)isoxazole] | – | 1 to 5
13 | C[C@H](Sc1nncn1C)c1cccc(-n2ncc(-c3cccc(Cl)c3)n2)c1 [Example 78, 4-(3-chlorophenyl)-2-[3-[(1S)-1-[(4-methyl-4H-1,2,4-triazol-3-yl)sulfanyl]ethyl]phenyl]-2H-1,2,3-triazole] | – | 1 to 5
14 | C[C@H](Sc1nncn1C)c1cccc(-n2ncc(-c3cccc(C#N)c3)n2)c1 [Example 97, (S)-3-(2-(3-(1-(4-methyl-4H-1,2,4-triazol-3-ylthio)ethyl)phenyl)-2H-1,2,3-triazol-4-yl)benzonitrile] | 1 to 5 | 1 to 5
15 | Cc1ccc(-c2cc(-c3cccc([C@H](C)Sc4nncn4C)c3)on2)cc1 [Example 55, (S)-5-(3-(1-(4-methyl-4H-1,2,4-triazol-3-ylthio)ethyl)phenyl)-3-p-tolylisoxazole] | – | 1 to 5
16 | C[C@H](Sc1nncn1C)c1cccc(NC(=O)N2CCC3(CNC(=O)C3)C2)c1 (stereo partly drawn) [Example 139, N-(3-((S)-1-((4-methyl-4H-1,2,4-triazol-3-yl)thio)ethyl)phenyl)-8-oxo-2,7-diazaspiro[4.4]nonane-2-carboxamide] | – | ≥ 5
17 | C[C@H](Sc1nncn1C)c1cccc(NC(=O)N2CCOCC2)c1 [Example 128, N-[3-[(1S)-1-[(4-methyl-4H-1,2,4-triazol-3-yl)sulfanyl]ethyl]phenyl]morpholine-4-carboxamide] | – | ≥ 5
18 | Cn1cnnc1C(F)(F)[C@](C)(F)c1cccc(NC(=O)N2CCOc3cccnc32)c1 [Example 24, (R)—N-(3-(1,1,2-trifluoro-1-(4-methyl-4H-1,2,4-triazol-3-yl)propan-2-yl)phenyl)-2,3-dihydro-4H-pyrido[3,2-b][1,4]oxazine-4-carboxamide] | – | 0.1 to 1
19 | CC(=O)N1CCC2(CCN(C(=O)Nc3cccc([C@H](C)Sc4nncn4C)c3)CC2)C1 [Example 160, (S)-2-acetyl-N-(3-(1-((4-methyl-4H-1,2,4-triazol-3-yl)thio)ethyl)phenyl)-2,8-diazaspiro[4.5]decane-8-carboxamide] | – | ≥ 5
20 | C[C@H](Sc1nncn1C)c1cccc(NC(=O)Nc2ccc(S(=O)(=O)N(C)C)cc2)c1 [Example 158, (S)—N,N-dimethyl-4-(3-(3-(1-((4-methyl-4H-1,2,4-triazol-3-yl)thio)ethyl)phenyl)ureido)benzenesulfonamide] | – | ≥ 5
21 | C[C@H](Sc1nncn1C)c1cccc(NC(=O)Nc2ccc(CC(=O)N(C)C)cc2)c1 [Example 150, (S)—N,N-dimethyl-2-(4-(3-(3-(1-((4-methyl-4H-1,2,4-triazol-3-yl)thio)ethyl)phenyl)ureido)phenyl)acetamide] | – | ≥ 5
22 | C[C@H](Sc1nncn1C)c1cccc(NC(=O)N2CCOC(c3ncon3)C2)c1 (stereo partly drawn) [Example 154, N-(3-((S)-1-((4-methyl-4H-1,2,4-triazol-3-yl)thio)ethyl)phenyl)-2-(1,2,4-oxadiazol-3-yl)morpholine-4-carboxamide] | – | ≥ 5
23 | C[C@H](Cc1nncn1C)c1cccc(NC(=O)N2CCc3cccnc32)c1 [Example 16, (R)—N-(3-(1-(4-methyl-4H-1,2,4-triazol-3-yl)propan-2-yl)phenyl)-2,3-dihydro-1H-pyrrolo[2,3-b]pyridine-1-carboxamide] | 0.1 to 1 | 0.1 to 1
24 | CNC(=O)c1ccc(-c2cc(-c3cccc([C@H](C)Sc4nncn4C)c3)on2)cc1 [Example 65, (S)—N-methyl-4-(5-(3-(1-(4-methyl-4H-1,2,4-triazol-3-ylthio)ethyl)phenyl)isoxazol-3-yl)benzamide] | 1 to 5 | 1 to 5
25 | C[C@H](Sc1nncn1C)c1cccc(NC(=O)Nc2ccccc2)c1 [Example 6, (S)-1-(3-(1-((4-methyl-4H-1,2,4-triazol-3-yl)thio)ethyl)phenyl)-3-phenylurea] | – | ≥ 5
